According to patent publication US7169604B1, “Method for PR-39 peptide mediated selective inhibition of IκBα degradation” (Beth Israel Deaconess Medical Center, priority 1998, dated 2007):
Ends that are not written are not given here.

Tests used:
[1] = molecular target: T1, IκBα-VCP (Homo sapiens, UniProt P25963+P55072); assay: IκBα-VCP binding (IκBα immunoprecipitation, anti-VCP Western blot) in ECV304 cells; format: cell-based; conditions: wild type ECV304 cells, 10 μM pretreatment, TNF-α 1 ng/ml
T1 construct: endogenous in cells; host or cells: wild type ECV304
T1 sequence (P25963 whole entry): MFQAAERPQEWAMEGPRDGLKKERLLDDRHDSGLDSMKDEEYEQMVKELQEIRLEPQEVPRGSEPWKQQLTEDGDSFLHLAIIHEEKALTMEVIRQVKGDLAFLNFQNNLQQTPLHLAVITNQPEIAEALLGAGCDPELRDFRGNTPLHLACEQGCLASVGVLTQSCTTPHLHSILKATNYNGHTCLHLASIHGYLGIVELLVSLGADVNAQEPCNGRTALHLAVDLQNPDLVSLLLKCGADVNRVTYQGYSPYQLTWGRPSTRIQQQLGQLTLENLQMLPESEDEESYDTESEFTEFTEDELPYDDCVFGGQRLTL
T1 sequence (P55072 2-806 limits assumed): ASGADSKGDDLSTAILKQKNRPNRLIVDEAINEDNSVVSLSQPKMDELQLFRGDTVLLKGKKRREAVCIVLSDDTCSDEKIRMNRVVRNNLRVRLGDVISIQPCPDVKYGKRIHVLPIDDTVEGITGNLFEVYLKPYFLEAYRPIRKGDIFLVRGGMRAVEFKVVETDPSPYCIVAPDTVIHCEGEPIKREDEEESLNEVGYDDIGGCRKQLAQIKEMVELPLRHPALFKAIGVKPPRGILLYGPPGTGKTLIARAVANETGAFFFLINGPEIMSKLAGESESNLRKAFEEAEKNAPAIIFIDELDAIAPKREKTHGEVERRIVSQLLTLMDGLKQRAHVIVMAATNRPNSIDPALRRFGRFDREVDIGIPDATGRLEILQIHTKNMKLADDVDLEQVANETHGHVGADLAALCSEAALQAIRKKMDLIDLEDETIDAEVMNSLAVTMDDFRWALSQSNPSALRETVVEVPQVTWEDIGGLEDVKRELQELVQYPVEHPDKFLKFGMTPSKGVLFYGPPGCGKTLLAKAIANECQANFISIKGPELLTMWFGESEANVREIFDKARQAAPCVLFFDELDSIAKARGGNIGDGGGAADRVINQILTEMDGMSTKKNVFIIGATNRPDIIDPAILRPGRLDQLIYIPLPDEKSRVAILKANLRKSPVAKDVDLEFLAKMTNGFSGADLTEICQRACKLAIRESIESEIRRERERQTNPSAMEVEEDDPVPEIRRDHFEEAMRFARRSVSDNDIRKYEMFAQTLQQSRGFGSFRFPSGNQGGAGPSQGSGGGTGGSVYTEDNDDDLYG
Description: Wild type ECV304 cells (treated as described in FIG. 4C) were subjected to immunoprecipitation with anti-IκBα antibody (IκBα-IP) followed by Western blotting with anti-VCP-3 antibody (1:3000, dilution; a kind gift of Dr. C. C. Li (NIH)). Note the presence of 90 kD VCP band in the presence or absence of PR-39 treatment.
Pretreatment with PR-39 increased the amount of VCP in the IκBα immunoprecipitate (FIG. 4D) as would be expected given the increased amount of ubiquitinated forms of IκBα in the PR-39-treated cells.

[2] = test system: U937 cells; assay: Proteasome-dependent degradation of total cellular proteins (35S Met pulse-chase); format: cell-based, human; conditions: 10 μM, 1 hr chase, chloroquin 45 μM, after 16 hr metabolic labeling
Method: Therefore the extent of degradation of long-lived cell proteins before or following exposure was compared to either PR-39 or MG132. The result is given by FIG. 3A.
Exponentially proliferating U937 cells were grown in 10% FBS-RPMI 1640 methionine-free medium supplemented with 200 μCi ^35S Met for 16 hr. Cells were then washed with complete RPMI 1640 medium 3 times and cultured in 10% FBS-RPMI (chase) in the presence of 10 μM of either PR-39 or MG132 or an equal volume of PBS. Chloroquin (45 μM) was added to all cultures to prevent the lysosomal protein degradation. 1 hr later the cells were lysed, and TCA soluble ^35S counts were measured in a liquid scintillation counter (LKB). All experiments were carried out in triplicate and repeated three times. The data are shown as mean±standard deviation.

[3] = test system: IκBα; assay: IκBα protein levels in ECV304 cells by Western blotting; format: cell-based, human; conditions: ECV cells, 2 hr exposure, 100 or 50 nM
Method: For IκBα expression studies, normally proliferating wild type ECV304 cells (ECV) or ECV-PR-39 and ECV-E4 cells were lysed in the loading buffer, subjected to electrophoresis on 10% SDS-PAGE gel and transferred to a PVDF membrane. IκBα expression was then determined by Western blotting with anti-IκBα antibody (Santa Cruz, Inc.). ECV304 cells treated for 2 hr with 10 μM of lactacystin (LC) were used as control.
Western blotting of ECV cell lysate was carried out following 2 hr exposure to buffer (0) or 100 or 50 nM of PR-39. […] Clearly, exposure of wild type ECV304 cells to the synthetic PR-39 peptide led to a dose-dependent increase in IκBα levels.

[4] = test system: p21, cyclin E and c-fos; assay: Levels of proteasome-regulated proteins by Western blotting; format: cell-based, human
Method: This is shown by FIG. 3C.
The level of proteasome-regulated cell cycle repressor p21, cyclin E and c-fos proteins were determined by Western blotting in U937 cells pretreated with various amounts of PR-39 and then exposed to TNF-α (1 ng/ml).

[5] = test system: IκBα; assay: IκBα ubiquitination in HA-Ub expressing ECV304 cells; format: cell-based, human; conditions: 10 μM pretreatment, TNF-α 1 ng/ml
Method: ECV304 cells were stably transfected with a HA-tagged ubiquitin plasmid MT123 (kind gift of Dr. G. Walz, BIDMC). The clone with the highest expression of HA-ubiquitin was treated with 10 μM PR39 for 45 min followed by treatment with 1 ng/ml TNFα for 20 min. At that point, the cells were washed and lysed and IκBα was immunoprecipitated. Following SDS-PAGE and membrane transfer of the immunoprecipitated material, the HA-ubiquitinated IκBα was visualized by Western blotting with an anti-HA antibody (Santa Cruz).
To assess the effect of PR-39 peptide treatment on IκBα ubiquitination in intact cells, a stable ECV304-derived cell line expressing HA-tagged ubiquitin was generated. […] HA-Ub expressing ECV304 cells were exposed to 1 ng/ml TNF-α in the presence (+) or absence (−) of 10 μM PR-39 pretreatment. 45 min later the cells were lysed and subjected to IκBα immunoprecipitation followed by Western blotting of the pellet material with anti-HA antibody. Note the presence of multiple ubiquitinated IκBα intermediaries in PR-39 peptide treated cells but not in control cells.

[6] = test system: IκBα; assay: Reversibility of inhibition of IκBα degradation after washout in U937 cells; format: cell-based, human; conditions: 100 nM for 45 min, washed, 45 min later TNF-α 1 ng/ml, 10 min
Method: In parallel cells were exposed to MG132, a rapidly reversible competitive inhibitor of the proteasome or with lactacystin which covalently and irreversibly modifies the active site threonine residues. The results are shown by FIG. 1F.
U937 cells were pretreated with 100 nM of PR-39, 10 μM of either MG132 or lactacystin (LC) or buffer (Control) for 45 min. These cells were then extensively washed with fresh medium. 45 min later TNF-α (1 ng/ml) was added to medium, and the extent of IκBα degradation was determined 10 min later by Western blotting.

[7] = test system: HSP70; assay: HSP70 expression by Western blotting; format: cell-based, human
[8] = Infarct size in mice, ischemia-reperfusion injury; format: in vivo; conditions: infusion prior to restoration of flow
Description: • a. Inhibition of ischemia-reperfusion injury. Restoration of blood flow to the myocardium in the setting of acute myocardial infarction leads to further damage to ischemic but still live heart muscle due to an influx of inflammatory blood cells that is mediated by NFκB-activated expression of endothelial adhesion molecules ICAM-1 and VCAM-1. Infusion of PR39 prior to restoration of flow blocks this effect due to inhibition of NFκB activity and effectively protects from further myocardial injury. […] Inhibition of chemical pancreatitis. Tissue injury in the pancreas due to chemical or hormonal injury is one of the more common causes of acute pancreatitis. This is largely mediated by NFκB. Pre-treatment with PR39 blocks this injury. • c. PR39 will block any other injury activated NFκB-dependent gene transcription and thus can be used to block the development of skin wounds, ulcers (stomach, duodenum), etc.

[9] = test system: NFκB; assay: NFκB-dependent luciferase reporter (pNFκB-Luc) in ECV304 cells; format: cell-based, human; conditions: 45 min pretreatment with 10 nM, TNF-α 1 ng/ml
Method: The results are presented by FIG. 2A.
The effect of PR-39-mediated inhibition of IκBα degradation on NFκB-dependent transcription was tested in ECV304 cells transiently transfected with pNFκB-Luc reporter vector.

RRRPRPPYLPRPRPPPFFPPRLPPRIPPGFPPRFPPRFP [PR-39]
IκBα-VCP binding [1]: does not inhibit IκBα-VCP binding | inhibition of total cell protein degradation [2]: little or no effect | IκBα protein levels [3]: dose-dependent increase in IκBα protein levels | levels of p21, cyclin E and c-fos ([4]; ECV304 cells): failed to demonstrate any effect | proteasome-mediated degradation of p21, cyclin E and c-fos ([4]; U937 cells pretreated with various amounts, then TNF-α 1 ng/ml): lack of PR-39 dependent inhibition | ubiquitinated IκBα in cells [5]: accumulation of more ubiquitinated IκBα complexes | extent of IκBα degradation after washout [6]: complete disappearance of IκBα protein | HSP70 expression ([7]; U937 cells, 1 μM, 3 hr exposure): lack of induction of HSP70 expression | HSP70 levels ([7]; cultured ECV304 cells, 10 μM): failed to stimulate HSP70 accumulation | reduction of infarct size [8]: 60% | TNF-α induced increase in luciferase activity [9]: completely blocked
